Test results as given in article PMC8330742, “New benzothieno[2,3-c]pyridines as non-steroidal CYP17 inhibitors: design, synthesis, anticancer screening, apoptosis induction, and in silico ADME profile studies” (Journal of Enzyme Inhibition and Medicinal Chemistry, 2021).

What was measured:
CAKI-1 = assay: NCI-60 SRB screen; format: cell-based, human; details: Homo sapiens; CAKI-1; single dose 10^−5 M; read-out: Growth inhibition (%)
NCI-H322M = assay: NCI-60 SRB screen; format: cell-based, human; details: Homo sapiens, single dose 10^−5 M, read-out: Growth inhibition (%)
A549/ATCC = assay: NCI-60 SRB screen; format: cell-based, human; details: Homo sapiens, single dose 10^−5 M, read-out: Growth inhibition (%)
KM12 = assay: NCI-60 SRB screen; format: cell-based, human; details: Homo sapiens; KM12; single dose 10^−5 M; read-out: Growth inhibition (%)
UACC-62 = assay: NCI-60 SRB screen; format: cell-based, human; details: Homo sapiens; UACC-62; single dose 10^−5 M; read-out: Growth inhibition (%)
UACC-257 = assay: NCI-60 SRB screen; format: cell-based, human; details: Homo sapiens, UACC-257; UACC-275 (so in the source); single dose 10^−5 M; read-out: Growth inhibition (%)
HCT-15 = assay: NCI-60 SRB screen; format: cell-based, human; details: Homo sapiens; HCT-15; single dose 10^−5 M; read-out: Growth inhibition (%)
EKVX = assay: NCI-60 SRB screen; format: cell-based, human; details: Homo sapiens, single dose 10^−5 M, read-out: Growth inhibition (%)
MDA-MB-435 = assay: NCI-60 SRB screen; format: cell-based; details: Homo sapiens, MDA-MB-435, read-out: Growth inhibition (%)
SK-MEL-2 = assay: NCI-60 SRB screen; format: cell-based, human; details: Homo sapiens; SK-MEL-2; single dose 10^−5 M; read-out: Growth inhibition (%)
SF-295 = assay: NCI-60 SRB screen; format: cell-based, human; details: Homo sapiens; SF-295; single dose 10^−5 M; read-out: Growth inhibition (%)
[1] = test system: panel of 60 cancer cell lines; assay: NCI-60 SRB screen, mean or range over the panel; format: cell-based, human; details: Homo sapiens; mean over the cell lines; single dose 10^−5 M; read-out: Mean growth inhibition (%)
RXF 393 = assay: NCI-60 SRB screen; format: cell-based, human; details: Homo sapiens; RXF 393; single dose 10^−5 M; read-out: Growth inhibition (%)
OVCAR-4 = assay: NCI-60 SRB screen; format: cell-based, human; details: Homo sapiens; OVCAR-4; single dose 10^−5 M; read-out: Growth inhibition (%)
OVCAR-8 = assay: NCI-60 SRB screen; format: cell-based, human; details: Homo sapiens; OVCAR-8; single dose 10^−5 M; read-out: Growth inhibition (%)
COLO 205 = assay: NCI-60 SRB screen; format: cell-based, human; details: Homo sapiens; COLO 205; single dose 10^−5 M; read-out: Growth inhibition (%)
786-0 = assay: NCI-60 SRB screen; format: cell-based; details: Homo sapiens; 786-0; single dose 10^−5 M; read-out: Growth inhibition (%)
SF-268 = assay: NCI-60 SRB screen; format: cell-based, human; details: Homo sapiens; SF-268; single dose 10^−5 M; read-out: Growth inhibition (%)
NCI-H226 = assay: NCI-60 SRB screen; format: cell-based, human; details: Homo sapiens; NCI-H226; single dose 10^−5 M; read-out: Growth inhibition (%)
HOP-92 = assay: NCI-60 SRB screen; format: cell-based, human; details: Homo sapiens; HOP-92; single dose 10^−5 M; read-out: Growth inhibition (%)
HCT-116 = assay: NCI-60 SRB screen; format: cell-based, human; details: Homo sapiens; HCT-116; single dose 10^−5 M; read-out: Growth inhibition (%)
HL-60(TB) = assay: NCI-60 SRB screen; format: cell-based, human; details: Homo sapiens; HL-60 (TB); single dose 10^−5 M; read-out: Growth inhibition (%)
MALME-3M = assay: NCI-60 SRB screen; format: cell-based, human; details: Homo sapiens, single dose 10^−5 M, read-out: Growth inhibition (%)
NCI-H460 = assay: NCI-60 SRB screen; format: cell-based, human; details: Homo sapiens; NCI-H460; single dose 10^−5 M; read-out: Growth inhibition (%)
CCRF-CEM = assay: NCI-60 SRB screen; format: cell-based; details: Homo sapiens, single dose 10^−5 M, read-out: Growth inhibition (%)
ACHN = assay: NCI-60 SRB screen; format: cell-based; details: Homo sapiens, single dose 10^−5 M, read-out: Growth inhibition (%)
SK-MEL-5 = assay: NCI-60 SRB screen; format: cell-based, human; details: Homo sapiens; SK-MEL-5; single dose 10^−5 M; read-out: Growth inhibition (%)
NCI/ADR-RES = assay: NCI-60 SRB screen; format: cell-based, human; details: Homo sapiens, single dose 10^−5 M, read-out: Growth inhibition (%)
NCI-H23 = assay: NCI-60 SRB screen; format: cell-based, human; details: Homo sapiens; NCI-H23; single dose 10^−5 M; read-out: Growth inhibition (%)
SW-620 = assay: NCI-60 SRB screen; format: cell-based; details: Homo sapiens; SW-620; single dose 10^−5 M; read-out: Growth inhibition (%)
MOLT-4 = assay: NCI-60 SRB screen; format: cell-based; details: Homo sapiens; MOLT-4; single dose 10^−5 M; read-out: Growth inhibition (%)
IGROV1 = assay: NCI-60 SRB screen; format: cell-based, human; details: Homo sapiens, IGROV-1; IGROV1; single dose 10^−5 M; read-out: Growth inhibition (%)
M14 = assay: NCI-60 SRB screen; format: cell-based, human; details: Homo sapiens; M14; single dose 10^−5 M; read-out: Growth inhibition (%)
TK-10 = assay: NCI-60 SRB screen; format: cell-based, human; details: Homo sapiens; TK-10; single dose 10^−5 M; read-out: Growth inhibition (%)
SK-OV-3 = assay: NCI-60 SRB screen; format: cell-based, human; details: Homo sapiens; SK-OV-3; single dose 10^−5 M; read-out: Growth inhibition (%)
K-562 = assay: NCI-60 SRB screen; format: cell-based, human; details: Homo sapiens, K562; K-562; single dose 10^−5 M; read-out: Growth inhibition (%)
HOP-62 = assay: NCI-60 SRB screen; format: cell-based, human; details: Homo sapiens; HOP-62; single dose 10^−5 M; read-out: Growth inhibition (%)
SK-MEL-28 = assay: NCI-60 SRB screen; format: cell-based; details: Homo sapiens; SK-MEL-28; single dose 10^−5 M; read-out: Growth inhibition (%)
HT-29 = assay: NCI-60 SRB screen; format: cell-based; details: Homo sapiens; HT-29; single dose 10^−5 M; read-out: Growth inhibition (%)
NCI-H522 = assay: NCI-60 SRB screen; format: cell-based, human; details: Homo sapiens; NCI-H522; single dose 10^−5 M; read-out: Growth inhibition (%)
OVCAR-3 = assay: NCI-60 SRB screen; format: cell-based, human; details: Homo sapiens; OVCAR-3; single dose 10^−5 M; read-out: Growth inhibition (%)
SN12C = assay: NCI-60 SRB screen; format: cell-based, human; details: Homo sapiens, SN12C; SN 12 C; single dose 10^−5 M; read-out: Growth inhibition (%)
UO-31 = assay: NCI-60 SRB screen; format: cell-based, human; details: Homo sapiens; UO-31; single dose 10^−5 M; read-out: Growth inhibition (%)
SR = assay: NCI-60 SRB screen; format: cell-based; details: Homo sapiens, single dose 10^−5 M, read-out: Growth inhibition (%)

Compound: N#CC1C(=O)NC(c2cccc([N+](=O)[O-])c2)c2sc3c(F)cccc3c21 (centres unmarked) [Compound 5d, 4-Cyano-8-fluoro-1-(3-nitrophenyl)-1,2-dihydro[1]benzothieno[2,3-c] pyridin-3(4H)-one]
- inhibition at 10 µM (CAKI-1): 14.4%
- inhibition at 10 µM (NCI-H322M): 4.25%
- inhibition at 10 µM (A549/ATCC): -6.53%
- inhibition at 10 µM (KM12): 5.7%
- inhibition at 10 µM (UACC-62): 12.2%
- inhibition at 10 µM (UACC-257): -19%
- inhibition at 10 µM (HCT-15): 0.05%
- inhibition at 10 µM (EKVX): 11.5%
- inhibition at 10 µM (MDA-MB-435): -6.69%
- inhibition at 10 µM (SK-MEL-2): -13.1%
- inhibition at 10 µM (SF-295): 1.95%
- inhibition at 10 µM [1]: 5%
- inhibition at 10 µM (RXF 393): -7.73%
- inhibition at 10 µM (OVCAR-4): 9.55%
- inhibition at 10 µM (OVCAR-8): 5.37%
- inhibition at 10 µM (COLO 205): -14.8%
- inhibition at 10 µM (786-0): -6.8%
- inhibition at 10 µM (SF-268): 16.4%
- inhibition at 10 µM (NCI-H226): 3.95%
- inhibition at 10 µM (HOP-92): 17.2%
- inhibition at 10 µM (HCT-116): 7.78%
- inhibition at 10 µM (HL-60(TB)): -0.44%
- inhibition at 10 µM (MALME-3M): -12.1%
- inhibition at 10 µM (NCI-H460): 18.1%
- inhibition at 10 µM (CCRF-CEM): -0.08%
- inhibition at 10 µM (ACHN): 13.5%
- inhibition at 10 µM (SK-MEL-5): 4.83%
- inhibition at 10 µM (NCI/ADR-RES): 2.18%
- inhibition at 10 µM (NCI-H23): -0.19%
- inhibition at 10 µM (SW-620): 7.44%
- inhibition at 10 µM (MOLT-4): 18.9%
- inhibition at 10 µM (IGROV1): 36.6%
- inhibition at 10 µM (M14): -8.86%
- inhibition at 10 µM (TK-10): -58.3%
- inhibition at 10 µM (SK-OV-3): -0.9%
- inhibition at 10 µM (K-562): 8.17%
- inhibition at 10 µM (HOP-62): 21.4%
- inhibition at 10 µM (SK-MEL-28): -21.6%
- inhibition at 10 µM (HT-29): -2.29%
- inhibition at 10 µM (NCI-H522): 22.4%
- inhibition at 10 µM (OVCAR-3): 9.36%
- inhibition at 10 µM (SN12C): 5.16%
- inhibition at 10 µM (UO-31): 41.3%
- inhibition at 10 µM (SR): 17.3%
